Data: US8633312B2, “Dibenzocycloheptatone derivatives and pharmaceutical agents containing said compounds” (c-a-i-r biosciences GmbH, priority 2008, dated 2014)

What was measured:
[1] = system: TNF-α; assay: Inhibition of TNF-α release, IC50 relative to SB-203580; assay type: cell-based; conditions: relative activity = ratio IC50 (SB-203580)/IC50 (test compound); the higher the value, the more active
Excerpt: The action spectrum of the compounds as inhibitors of the release of TNF-α and IL-1β was investigated with the aid of the test systems as described by Donat C. and Laufer S. in Arch. Pharm. Pharm. Med. Chem. 333, Suppl. 1, 1-40, 2000. The IC50 values obtained were set in relation to the values for the compound SB-203580 of the formula
The numerical values given in the following table are therefore the relative activity, calculated from the ratio of IC50 (SB-203580)/IC50 (test compound). […] The compounds in which R1 represents H represent the prior art according to WO2006/120010.

[2] = molecular target: p38 MAP kinase (Homo sapiens, UniProt Q16539); assay: Inhibition of p38 MAP kinase, IC50 relative to SB-203580; assay type: biochemical; conditions: relative activity = ratio IC50 (SB-203580)/IC50 (test compound); the higher the value, the more active
Chain of p38 MAP kinase (Q16539 whole entry): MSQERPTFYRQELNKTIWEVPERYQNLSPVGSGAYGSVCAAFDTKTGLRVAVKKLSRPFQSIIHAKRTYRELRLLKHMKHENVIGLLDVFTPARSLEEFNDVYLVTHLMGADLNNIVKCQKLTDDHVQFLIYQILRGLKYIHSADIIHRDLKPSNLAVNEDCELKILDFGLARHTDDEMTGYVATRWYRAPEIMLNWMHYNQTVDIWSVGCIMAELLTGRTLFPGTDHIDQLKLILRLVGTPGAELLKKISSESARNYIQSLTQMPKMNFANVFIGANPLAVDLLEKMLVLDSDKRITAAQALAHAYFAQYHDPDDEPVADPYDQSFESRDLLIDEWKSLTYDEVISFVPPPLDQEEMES

Compound	p38 MAP kinase [2]	melting point [°C]	Inhibition of TNF-α [1]
O=C1c2ccc(Nc3ccc(F)cc3F)cc2CCc2ccc(O)cc21 [2-(2,4-Difluoroanilino)-7-hydroxy-10,11-dihydrodibenzo[a,d]-cyclohepten-5-one]	2.03		1.80
O=C1c2ccc(Nc3ccc(F)cc3F)cc2CCc2ccc(OCCCO)cc21 [2-(2,4-Difluoroanilino)-7-(3-hydroxy-propoxy)-10,11-dihydrodibenzo[a,d]-cyclohepten-5-one]	4.85		>5
COc1ccc2c(c1)C(=O)c1ccc(Nc3ccccc3N)cc1CC2 [2-(2-Aminoanilino)-7-methoxydibenzosuberone]	1.00		0.91
COc1ccc2c(c1)CCc1cc(Nc3ccc(F)cc3F)ccc1C2=O [2-(2,4-Difluorophenylamino)-8-methoxy-10,11-dihydrodibenzo[a,d]cyclo-hepten-5-one]	2.60		
O=C1c2ccc(Nc3ccc(F)cc3F)cc2CCc2cc(OCCN3CCOCC3)ccc21 [2-(2,4-Difluorophenylamino)-8-(2-morpholin-4-yl-ethoxy)-10,11-dihydrodibenzo[a,d]cyclohepten-5-one]	2.53		
O=C1c2ccc(Nc3ccc(F)cc3F)cc2CCc2ccc(OC3CCOCC3)cc21 [2-(2,4-Difluoroanilino)-7-(2-tetrahydropyran-4-yl-oxy)-10,11-dihydrodibenzo[a,d]-cyclohepten-5-one]	0.74		1.98
COc1ccc2c(c1)C(=O)c1ccc(Nc3ccc(F)cc3N)cc1CC2 [2-(2-Amino-4-fluoroanilino)-7-methoxydibenzosuberone]	0.92		0.73
Nc1ccccc1Nc1ccc2c(c1)CCc1ccc(OC[C@@H](O)CO)cc1C2=O [2-(2-Aminoanilino)-7-[2S-,3-dihydroxypropoxy]-10,11-dihydrodibenzo[a,d]-cyclohepten-5-one]	1.54		>5
COc1ccc2c(c1)C(=O)c1ccc(Nc3ccc(F)cc3F)cc1CC2 [2-(2,4-Difluoroanilino)-7-methoxydibenzosuberone]	1.59		0.70
COc1ccc2c(c1)C(=O)c1ccc(Nc3ccccc3OC)cc1CC2 [2-(2-Methoxyanilino)-7-methoxydibenzosuberone]	0.11		0.18
O=C1c2ccc(Nc3ccc(F)cc3F)cc2CCc2cc(OCCO)ccc21 [2-(2,4-Difluorophenylamino)-8-(2-hydroxyethoxy)-10,11-dihydrodibenzo[a,d]-cyclohepten-5-one]	2.60		

Now from value to compound, other results behind:

p38 MAP kinase [2]	melting point [°C]	Compound	Inhibition of TNF-α [1]
	59	O=C1c2ccc(-n3cnnn3)cc2COc2cc(Nc3ccc(F)cc3F)ccc21 [Example 95, 3-(2,4-Difluorophenylamino)-8-tetrazol-1-yl-6H-dibenzo[b,e]oxepin-11-one]	
2.26		O=C1c2ccc(Nc3ccc(F)cc3F)cc2CCc2c(O)cccc21 [8-(2,4-Difluorophenylamino)-1-hydroxy-10,11-dihydrodibenzo[a,d]cyclohepten-5-one]	0.06
0.51	244.3	O=C1c2ccc(NC(=O)N3CCOCC3)cc2COc2cc(Nc3ccc(F)cc3F)ccc21 [Morpholine-4-carboxylic acid [3-(2,4-difluorophenylamino)-1-oxo-6,11-dihydrodibenzo[b,e]oxepin-8-yl]amide]	
1.15	194.5	Nc1ccc2c(c1)COc1cc(Nc3ccc(F)cc3N)ccc1C2=O [3-(2-Amino-4-fluorophenylamino)-8-amino-6H-dibenzo[b,e]oxepin-11-one]	0.24
1.26		O=C1c2ccc(Nc3ccc(F)cc3F)cc2CCc2c(OCCN3CCOCC3)cccc21 [8-(2,4-Difluorophenylamino)-1-(2-morpholin-4-yl-ethoxy)-10,11-dihydrodibenzo[a,d]cyclo-hepten-5-one]	
1.76		O=C1c2ccc(Nc3ccc(F)cc3F)cc2CCc2c(OC[C@H](O)CO)cccc21 [(R)-8-(2,4-Difluorophenylamino)-1-(2,3-dihydroxypropoxy)-10,11-dihydrodibenzo-[a,d]cyclohepten-5-one]	
0.14	68.4	COc1ccccc1Nc1ccc2c(c1)OCc1cc(N)ccc1C2=O [8-Amino-3-(2-methoxyphenylamino)-6H-dibenzo[b,e]oxepin-11-one]	0.04
0.93	203.9	Nc1ccc2c(c1)COc1cc(Nc3ccccc3N)ccc1C2=O [3-(2-Aminophenylamino)-8-amino-6H-dibenzo[b,e]oxepin-11-one]	
	184 to 193	Nc1ccc2c(c1)COc1cc(Nc3ccc(F)cc3F)ccc1C2=O [Example 82, 3-(2,4-Difluorophenylamino)-8-amino-6H-dibenzo[b,e]oxepin-11-one]	
	93.9	Nc1ccc2c(c1)COc1cc(Nc3ccc(C(F)(F)F)cc3N)ccc1C2=O [Example 92, 8-Amino-3-(2-amino-4-trifluoromethylphenylamino)-6H-dibenzo[b,e]oxepin-11-one]	
1.31		CC1(C)OC[C@H](COc2ccc3c(c2)C(=O)c2ccc(Nc4ccccc4N)cc2CC3)O1 [2-(Aminoanilino)-7-(S-1,2-isopropylideneglycer-3-yl)-10,11-dihydrodibenzo[a,d]-cyclohepten-5-one]	>5
